pKi: −log10 of the molar value.
Experiments:
[1] = molecular target: T1, Aurora-2 (Homo sapiens, UniProt O14965); assay: Ki determination for the inhibition of Aurora-2 (coupled enzyme assay); type: biochemical; settings: 70 nM Aurora-2, peptide LRRASLG, 30° C.
T1 sequence (O14965 1-403): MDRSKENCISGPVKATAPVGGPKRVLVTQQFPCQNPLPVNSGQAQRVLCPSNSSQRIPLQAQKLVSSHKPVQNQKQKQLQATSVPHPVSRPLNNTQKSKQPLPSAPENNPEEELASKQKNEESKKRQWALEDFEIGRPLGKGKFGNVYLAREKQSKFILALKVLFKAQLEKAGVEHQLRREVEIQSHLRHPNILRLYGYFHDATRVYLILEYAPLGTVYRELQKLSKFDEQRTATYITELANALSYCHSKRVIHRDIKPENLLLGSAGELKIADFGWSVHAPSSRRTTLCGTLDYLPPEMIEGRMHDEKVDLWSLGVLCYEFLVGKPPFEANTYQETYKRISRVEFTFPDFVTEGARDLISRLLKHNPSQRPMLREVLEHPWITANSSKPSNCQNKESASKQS
Method: To an assay stock buffer solution containing 0.1M HEPES 7.5, 10 mM MgCl2, 1 mM DTT, 25 mM NaCl, 2.5 mM phosphoenolpyruvate, […], 30 mg/ml pyruvate kinase, 10 mg/ml lactate dehydrogenase, 40 mM ATP, and 800 μM peptide (LRRASLG, American Peptide, Sunnyvale, Calif.) was added a DMSO solution of a compound of the present invention to a final concentration of 30 μM. The resulting mixture was incubated at 30° C. for 10 min. The reaction was initiated by the addition of 10 μL of Aurora-2 stock solution to give a final concentration of 70 nM in the assay. […] The Ki values were determined from the rate data as a function of inhibitor concentration.

[2] = molecular target: T2, GSK-3β (AA 1-420) (Homo sapiens, UniProt P49841); assay: Ki determination for the inhibition of GSK-3 (coupled enzyme system); type: biochemical; settings: 20 μM ATP, 300 μM peptide, 20 nM GSK-3β, 30° C.
T2 construct: GSK-3β (AA 1-420)
Method: Reactions were carried out in a solution containing 100 mM HEPES (pH 7.5), 10 mM MgCl2, 25 mM NaCl, 300 μM NADH, 1 mM DTT and 1.5% DMSO. Final substrate concentrations in the assay were 20 μM ATP (Sigma Chemicals, St Louis, Mo.) and 300 μM peptide (HSSPHQS(PO3H2)EDEEE, American Peptide, Sunnyvale, Calif.). Reactions were carried out at 30° C. and 20 nM GSK-3β. Final concentrations of the components of the coupled enzyme system were 2.5 mM phosphoenolpyruvate, 300 μM NADH, 30 μg/ml pyruvate kinase and 10 μg/ml lactate dehydrogenase.
An assay stock buffer solution was prepared containing all of the reagents listed above with the exception of ATP and the test compound of interest. […] The reaction was initiated by the addition of 20 μl of ATP (final concentration 20 μM). Rates of reaction were obtained using a Molecular Devices Spectramax plate reader (Sunnyvale, Calif.) over 10 min at 30° C. The Ki values were determined from the rate data as a function of inhibitor concentration.

[3] = molecular target: CDK-2/Cyclin A (Homo sapiens, UniProt P24941); assay: CDK-2 inhibition assay (coupled enzyme assay); type: biochemical; settings: 25 nM CDK-2/Cyclin A, 30° C.
Method: Compounds were screened in the following manner for their ability to inhibit CDK-2 using a standard coupled enzyme assay (Fox et al (1998) Protein Sci 7, 2249).
To an assay stock buffer solution containing 0.1M HEPES 7.5, 10 mM MgCl2, 1 mM DTT, 25 mM NaCl, 2.5 mM phosphoenolpyruvate, […], 30 mg/ml pyruvate kinase, 10 mg/ml lactate dehydrogenase, 100 mM ATP, and 100 μM peptide ([…], American Peptide, Sunnyvale, Calif.) was added a DMSO solution of a compound of the present invention to a final concentration of 30 μM. The resulting mixture was incubated at 30° C. for 10 min.
The reaction was initiated by the addition of 10 μL of CDK-2/Cyclin A stock solution to give a final concentration of 25 nM in the assay. The rates of reaction were obtained by monitoring absorbance at 340 nm over a 5-minute read time at 30° C. using a BioRad Ultramark plate reader (Hercules, Calif.). The Ki values were determined from the rate data as a function of inhibitor concentration.

T2 sequence (P49841 whole entry, the tested form may be a part): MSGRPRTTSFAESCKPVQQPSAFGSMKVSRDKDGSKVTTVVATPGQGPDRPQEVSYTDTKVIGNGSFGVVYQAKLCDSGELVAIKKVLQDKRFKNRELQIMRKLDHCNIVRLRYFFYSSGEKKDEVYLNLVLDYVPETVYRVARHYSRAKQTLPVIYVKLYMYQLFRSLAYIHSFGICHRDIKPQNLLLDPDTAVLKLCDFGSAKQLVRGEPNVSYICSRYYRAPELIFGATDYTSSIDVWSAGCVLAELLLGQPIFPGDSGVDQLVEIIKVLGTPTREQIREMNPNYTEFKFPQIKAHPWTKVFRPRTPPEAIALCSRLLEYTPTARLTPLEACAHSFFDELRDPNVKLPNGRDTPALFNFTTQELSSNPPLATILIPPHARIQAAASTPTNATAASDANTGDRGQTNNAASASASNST

Structure (SMILES): COc1ccc2c(Nc3cc(C)n[nH]3)nc(Sc3ccc(NC(C)=O)cc3)nc2c1 [IIa-40, [2-(4-Acetamidophenylsulfanyl)-7-methoxy-quinazolin-4-yl]-(5-methyl-2H-pyrazol-3-yl)-amine]
- melting point: 291 to 293 °C
- pKi [1]: > 7.00
- pKi [2]: 5.15 to 6.00
- pKi [3]: 4.70 to 6.00

From US7625913B2, “Pyrazole compounds useful as protein kinase inhibitors” (Vertex Pharmaceuticals Incorporated, priority 2000, dated 2009)
